Tests used:
PTP1B = biological target: T1, PTP1B (Homo sapiens, UniProt P18031); assay: PTP1B-inhibitory activity assay (p-NPP substrate); format: biochemical
T1 sequence (P18031 1-435): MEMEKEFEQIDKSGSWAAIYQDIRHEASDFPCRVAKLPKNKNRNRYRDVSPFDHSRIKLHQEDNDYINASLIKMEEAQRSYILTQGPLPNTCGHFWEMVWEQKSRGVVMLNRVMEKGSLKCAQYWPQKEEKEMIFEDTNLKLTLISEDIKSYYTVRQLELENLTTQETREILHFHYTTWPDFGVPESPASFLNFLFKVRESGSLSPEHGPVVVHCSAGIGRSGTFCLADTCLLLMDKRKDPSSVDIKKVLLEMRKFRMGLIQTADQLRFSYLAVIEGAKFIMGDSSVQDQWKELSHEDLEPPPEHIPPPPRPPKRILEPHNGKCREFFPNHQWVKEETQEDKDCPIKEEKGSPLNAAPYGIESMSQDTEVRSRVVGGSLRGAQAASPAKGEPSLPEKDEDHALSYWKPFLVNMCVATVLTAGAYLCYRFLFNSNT
Procedure: Following incubation at 37 °C for 30 min, the reaction was terminated with the addition of 10 M NaOH.

[1] = DPPH radical scavenging activity assay; conditions: free radical scavenging
Procedure: The DPPH radical scavenging activity was evaluated using methods outlined in Blois (1958), with slight modifications. Different concentrations in 160 μL of MeOH (final concentration = 320 μg/mL for the extracts, fractions, and the compounds) were added to 40 μL of a DPPH:MeOH solution (1.5 × 10^−4 M). After gently mixing the sample and letting it stand at room temperature for 30 min, the optical density was measured at 520 nm using a VERSAmax microplate spectrophotometer (Molecular Devices). […] We used L-ascorbic acid as the positive control. The IC50 values presented here are expressed as the mean ± the standard error of the mean of triplicate experiments.

[2] = biological target: human recombinant aldose reductase (HRAR) (Homo sapiens, UniProt P15121); assay: Human recombinant aldose reductase (HRAR)-inhibitory activity assay (DL-glyceraldehyde substrate); format: biochemical
Procedure: The reaction mixture was prepared as follows: we combined 100 µL of 0.15 mM nicotinamide adenine dinucleotide phosphate (NADPH), 100 µL of 10mM DL-glyceraldehyde as a substrate, and 5 µL of HRAR with the sample (final concentration of 100 µM for the test compound, dissolved in 100% DMSO) in a total volume of 1.0 mL of 100 mM sodium phosphate buffer (pH 6.2). The AR activity was determined by measuring the decrease in nicotinamide adenine dinucleotide phosphate (NADPH) absorption at 340 nm over a period of 1 min using an Ultrospec-2100pro UV–visible spectrophotometer with Microsoft™ Excel, control by SWIFT II software (Amersham Biosciences, Piscataway, NJ, USA). […] The inhibition percentage (%) was calculated as described for the assay of Renilla luciferase, except that the DA sample/min represented a reduction in absorbance for 1 min with the test samples and substrate. The HRAR-inhibitory activity of each sample was expressed in terms of the IC50 value (µM), which was calculated from the log–dose inhibition curve.

α-glucosidase = α-glucosidase (Saccharomyces cerevisiae, UniProt P53341); format: biochemical; conditions: at the tested concentration
Procedure: Enzyme inhibition studies were carried out spectrophotometrically in a 96-well microplate reader using a procedure reported by Li. A 60 µL reaction mixture, containing 20 µL of 100 mM phosphate buffer (pH 6.8), 20 µL of 2.5 mM p-NPG in the buffer, and 20 µL of PPT-14 dissolved in 10% DMSO, was added to each well. The enzymatic reaction was initiated by the addition of 20 µL of 10 mM phosphate buffer (pH 6.8), containing 0.2 U/mL α-glucosidase to each well. The plate was incubated at 37 °C for 15 min, and then 80 µL of 0.2 mol/L sodium carbonate solution was added to stop the reaction. Immediately after that, the absorbance was recorded at 405 nm using a VERSA max (Molecular Devices, Sunnyvale, CA, USA) microplate reader. Control samples contained the same reaction mixture, except that an equivalent volume of phosphate buffer was added instead of the sample solution. […] The inhibition (%) was calculated as (Ac − As)/Ac × 100%, where Ac was the absorbance of the control, and As was the absorbance of the sample.

Sequence of α-glucosidase (P53341 whole entry): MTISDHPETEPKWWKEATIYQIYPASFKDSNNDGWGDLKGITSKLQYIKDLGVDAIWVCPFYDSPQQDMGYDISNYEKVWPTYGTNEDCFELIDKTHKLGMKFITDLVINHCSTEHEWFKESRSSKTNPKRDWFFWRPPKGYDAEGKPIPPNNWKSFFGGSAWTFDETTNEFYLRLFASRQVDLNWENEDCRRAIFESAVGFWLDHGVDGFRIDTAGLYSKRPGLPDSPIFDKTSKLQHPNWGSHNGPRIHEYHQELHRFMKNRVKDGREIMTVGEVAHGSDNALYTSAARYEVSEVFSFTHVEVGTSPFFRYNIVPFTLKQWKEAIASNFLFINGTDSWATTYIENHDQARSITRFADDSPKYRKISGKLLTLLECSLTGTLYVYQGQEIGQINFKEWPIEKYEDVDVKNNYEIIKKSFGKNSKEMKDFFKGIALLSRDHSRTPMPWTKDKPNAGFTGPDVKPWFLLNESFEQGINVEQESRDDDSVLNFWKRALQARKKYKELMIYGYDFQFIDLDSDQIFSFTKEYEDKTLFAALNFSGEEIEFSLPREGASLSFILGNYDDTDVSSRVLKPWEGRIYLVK

Compound | IC50 (PTP1B) | DPPH IC50 [1] | IC50 [1] | IC50 [2] | α-glucosidase inhibitory activity (α-glucosidase)
C[C@@](O)(C(=O)O)[C@H](O)COC(=O)/C=C/c1ccc(O)c(O)c1 [PPT-14, 4-O-caffeoyl-2-C-methyl-D-threonic acid] | 64.92 ± 0.34 µM | 4.5 µg/mL | 14.5 µM | 19.5 ± 0.51 µM | did not exhibit any α-glucosidase inhibitory activity
O=C1O[C@H]([C@@H](O)CO)C(O)=C1O [Ascorbic acid, reference compound] |  | 5.6 µg/mL | 31.8 µM |  | 
